Measurements from the supplement of paper PMC12463676, “Small-molecule dissolution of stress granules by redox modulation benefits ALS models” (Nature Chemical Biology, 2025).

How the values were obtained:
[1] = compound: O=[As]([O-])(O)O.[K+] [potassium arsenate]; experiment: thermal stability z-score vs DMSO; higher = more thermally stabilized by treatment; conditions: HeLa; arsenate concentration 1 mM
Procedure: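 Cellular thermal proteome profiling in HeLa cells treated with 1 mM arsenate for 1 h (DMSO pretreatment), heated to ten temperatures (37-66.3 °C). Soluble protein was quantified by TMT mass spectrometry relative to DMSO controls; the thermal stability score was transformed to a z-score; mean of n = 3 experiments.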

[2] = compound: NC(=O)CCCCC1CCSS1 [lipoamide]; experiment: as above; conditions: HeLa, lipoamide concentration 100 µM
Procedure: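 Cellular thermal proteome profiling in HeLa cells. Cells were treated with 100 µM lipoamide for 1 h, with or without 1 mM arsenate for a further 1 h, then heated to ten temperatures (37-66.3 °C), and soluble protein was quantified by TMT mass spectrometry relative to 0.1% DMSO controls. The thermal stability score (sum of log2 fold changes minus the abundance score) was transformed to a z-score; mean of n = 3 experiments.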

[3] = arsenate co-treatment: 1 mM arsenate 1 h
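Note: each temperature applied for 3 min, abundance score taken as mean log2 fold change at the two lowest temperatures, z-score obtained by mean subtraction and division by SD.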

UniProt Q8IU85, sequence (Q8IU85 whole entry, looked up): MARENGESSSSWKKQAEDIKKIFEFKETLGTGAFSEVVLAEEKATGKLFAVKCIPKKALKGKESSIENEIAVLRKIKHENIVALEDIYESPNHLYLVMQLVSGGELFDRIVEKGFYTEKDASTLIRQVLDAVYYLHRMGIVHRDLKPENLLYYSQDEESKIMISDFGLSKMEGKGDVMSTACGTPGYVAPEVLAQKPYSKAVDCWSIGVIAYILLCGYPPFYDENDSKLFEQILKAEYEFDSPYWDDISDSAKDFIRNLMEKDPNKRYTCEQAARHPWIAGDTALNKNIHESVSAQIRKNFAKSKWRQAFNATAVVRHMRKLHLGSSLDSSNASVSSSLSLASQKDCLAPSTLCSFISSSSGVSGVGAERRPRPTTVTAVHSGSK
UniProt Q86Y37, sequence (Q86Y37 whole entry): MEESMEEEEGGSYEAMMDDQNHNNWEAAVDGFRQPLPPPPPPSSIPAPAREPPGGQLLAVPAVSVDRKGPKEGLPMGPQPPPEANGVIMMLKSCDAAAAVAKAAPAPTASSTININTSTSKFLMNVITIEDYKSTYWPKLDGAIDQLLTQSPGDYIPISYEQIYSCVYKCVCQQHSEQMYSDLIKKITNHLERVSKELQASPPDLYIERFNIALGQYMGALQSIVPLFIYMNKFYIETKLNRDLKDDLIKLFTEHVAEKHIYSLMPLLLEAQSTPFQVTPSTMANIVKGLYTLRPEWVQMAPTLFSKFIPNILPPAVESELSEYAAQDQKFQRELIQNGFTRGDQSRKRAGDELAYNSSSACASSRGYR
UniProt Q8TDN4, sequence (Q8TDN4 whole entry): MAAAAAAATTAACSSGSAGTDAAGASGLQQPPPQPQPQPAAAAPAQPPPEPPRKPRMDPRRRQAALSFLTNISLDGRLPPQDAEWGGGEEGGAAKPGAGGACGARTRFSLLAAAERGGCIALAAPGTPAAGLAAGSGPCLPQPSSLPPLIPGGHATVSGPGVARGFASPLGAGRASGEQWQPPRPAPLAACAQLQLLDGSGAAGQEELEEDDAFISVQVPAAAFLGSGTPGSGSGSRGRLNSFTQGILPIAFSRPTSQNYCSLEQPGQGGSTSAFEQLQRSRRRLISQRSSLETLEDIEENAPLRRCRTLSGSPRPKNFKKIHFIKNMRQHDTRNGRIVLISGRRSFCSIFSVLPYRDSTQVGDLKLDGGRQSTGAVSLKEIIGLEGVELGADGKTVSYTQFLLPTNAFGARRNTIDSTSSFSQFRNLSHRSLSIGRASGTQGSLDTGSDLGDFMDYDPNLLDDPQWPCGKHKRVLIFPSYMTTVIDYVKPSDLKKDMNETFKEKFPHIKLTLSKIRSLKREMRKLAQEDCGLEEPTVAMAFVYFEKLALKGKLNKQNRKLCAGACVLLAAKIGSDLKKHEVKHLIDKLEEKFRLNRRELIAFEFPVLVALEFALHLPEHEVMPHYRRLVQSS
UniProt Q9BY67, sequence (Q9BY67 whole entry): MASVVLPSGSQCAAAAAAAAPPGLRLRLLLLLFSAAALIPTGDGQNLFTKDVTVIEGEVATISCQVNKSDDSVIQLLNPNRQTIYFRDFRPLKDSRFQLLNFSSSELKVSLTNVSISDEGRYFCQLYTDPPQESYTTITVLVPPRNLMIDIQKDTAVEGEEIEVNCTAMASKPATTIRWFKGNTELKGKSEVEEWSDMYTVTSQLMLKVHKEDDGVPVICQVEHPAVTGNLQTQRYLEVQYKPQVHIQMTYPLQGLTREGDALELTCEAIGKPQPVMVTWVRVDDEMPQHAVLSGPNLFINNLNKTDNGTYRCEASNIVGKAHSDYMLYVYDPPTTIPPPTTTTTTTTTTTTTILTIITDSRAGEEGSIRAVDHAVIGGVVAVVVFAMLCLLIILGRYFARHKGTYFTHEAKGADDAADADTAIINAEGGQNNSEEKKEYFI
UniProt P07384, sequence (P07384 whole entry): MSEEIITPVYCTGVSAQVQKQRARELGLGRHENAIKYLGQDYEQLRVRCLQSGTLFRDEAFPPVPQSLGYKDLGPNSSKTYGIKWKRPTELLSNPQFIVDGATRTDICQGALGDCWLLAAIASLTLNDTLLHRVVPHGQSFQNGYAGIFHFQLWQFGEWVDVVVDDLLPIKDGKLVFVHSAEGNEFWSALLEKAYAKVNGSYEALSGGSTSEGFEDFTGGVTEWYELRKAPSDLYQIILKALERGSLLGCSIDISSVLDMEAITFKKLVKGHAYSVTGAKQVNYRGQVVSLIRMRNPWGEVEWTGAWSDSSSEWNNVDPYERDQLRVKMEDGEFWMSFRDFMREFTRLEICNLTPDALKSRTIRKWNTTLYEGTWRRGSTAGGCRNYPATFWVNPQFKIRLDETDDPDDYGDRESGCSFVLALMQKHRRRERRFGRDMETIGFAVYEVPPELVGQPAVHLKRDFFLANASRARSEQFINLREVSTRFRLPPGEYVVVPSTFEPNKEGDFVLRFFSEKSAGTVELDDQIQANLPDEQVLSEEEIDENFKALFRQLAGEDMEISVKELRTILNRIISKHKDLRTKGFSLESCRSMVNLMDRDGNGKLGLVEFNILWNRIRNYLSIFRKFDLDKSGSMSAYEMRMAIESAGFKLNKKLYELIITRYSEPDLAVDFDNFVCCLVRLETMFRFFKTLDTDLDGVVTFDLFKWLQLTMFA
UniProt P40121, sequence (P40121 whole entry): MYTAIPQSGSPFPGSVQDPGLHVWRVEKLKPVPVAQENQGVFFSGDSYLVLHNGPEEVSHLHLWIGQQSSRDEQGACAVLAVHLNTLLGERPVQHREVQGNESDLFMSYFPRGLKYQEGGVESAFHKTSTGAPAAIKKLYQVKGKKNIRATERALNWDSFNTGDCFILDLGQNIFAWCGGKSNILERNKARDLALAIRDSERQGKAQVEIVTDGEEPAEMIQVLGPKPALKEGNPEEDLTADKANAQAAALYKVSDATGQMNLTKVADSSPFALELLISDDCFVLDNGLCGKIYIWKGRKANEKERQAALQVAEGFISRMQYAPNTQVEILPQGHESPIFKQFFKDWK
UniProt Q8N5S9, sequence (Q8N5S9 whole entry, looked up): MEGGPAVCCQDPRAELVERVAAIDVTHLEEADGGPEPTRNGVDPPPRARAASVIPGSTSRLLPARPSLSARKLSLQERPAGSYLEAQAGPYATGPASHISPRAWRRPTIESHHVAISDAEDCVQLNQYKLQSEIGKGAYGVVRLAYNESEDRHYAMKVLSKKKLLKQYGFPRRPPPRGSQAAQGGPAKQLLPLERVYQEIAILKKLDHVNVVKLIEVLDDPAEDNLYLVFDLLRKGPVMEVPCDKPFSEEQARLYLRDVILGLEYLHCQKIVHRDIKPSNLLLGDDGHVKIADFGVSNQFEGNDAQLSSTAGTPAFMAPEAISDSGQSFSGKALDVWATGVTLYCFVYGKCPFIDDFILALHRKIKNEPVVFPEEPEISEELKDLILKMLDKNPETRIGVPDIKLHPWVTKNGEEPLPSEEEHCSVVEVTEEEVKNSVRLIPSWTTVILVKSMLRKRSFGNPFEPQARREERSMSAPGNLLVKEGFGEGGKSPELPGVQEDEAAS
UniProt Q96GS4, sequence (Q96GS4 whole entry): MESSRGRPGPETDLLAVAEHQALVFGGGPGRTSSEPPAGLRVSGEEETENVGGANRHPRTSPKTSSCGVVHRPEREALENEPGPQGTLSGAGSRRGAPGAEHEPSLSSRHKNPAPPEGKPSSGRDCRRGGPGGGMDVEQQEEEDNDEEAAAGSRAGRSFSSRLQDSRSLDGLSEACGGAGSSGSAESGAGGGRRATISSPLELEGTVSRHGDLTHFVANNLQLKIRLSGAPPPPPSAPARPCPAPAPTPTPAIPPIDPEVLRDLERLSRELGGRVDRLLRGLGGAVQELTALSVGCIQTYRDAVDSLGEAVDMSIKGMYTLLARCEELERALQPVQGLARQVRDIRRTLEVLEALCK
UniProt Q9HB71, sequence (Q9HB71 whole entry): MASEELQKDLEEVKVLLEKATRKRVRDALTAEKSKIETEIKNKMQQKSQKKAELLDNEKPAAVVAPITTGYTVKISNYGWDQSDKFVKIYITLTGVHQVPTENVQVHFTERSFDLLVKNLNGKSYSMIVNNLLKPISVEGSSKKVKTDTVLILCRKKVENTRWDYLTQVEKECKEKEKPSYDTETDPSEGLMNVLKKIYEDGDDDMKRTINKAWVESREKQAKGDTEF
UniProt Q13137, sequence (Q13137 whole entry): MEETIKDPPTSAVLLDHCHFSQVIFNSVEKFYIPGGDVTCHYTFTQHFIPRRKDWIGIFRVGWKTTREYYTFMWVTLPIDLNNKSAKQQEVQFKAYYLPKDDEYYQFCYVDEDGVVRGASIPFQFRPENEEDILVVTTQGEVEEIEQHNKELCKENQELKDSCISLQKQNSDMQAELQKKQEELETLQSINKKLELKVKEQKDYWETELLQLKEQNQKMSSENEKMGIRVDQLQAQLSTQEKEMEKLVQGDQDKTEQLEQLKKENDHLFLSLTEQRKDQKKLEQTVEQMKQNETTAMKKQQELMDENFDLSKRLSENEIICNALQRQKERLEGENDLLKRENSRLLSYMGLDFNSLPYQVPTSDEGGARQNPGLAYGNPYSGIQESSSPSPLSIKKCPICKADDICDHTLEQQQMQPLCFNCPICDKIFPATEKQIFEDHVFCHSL
UniProt P27797, sequence (P27797 whole entry): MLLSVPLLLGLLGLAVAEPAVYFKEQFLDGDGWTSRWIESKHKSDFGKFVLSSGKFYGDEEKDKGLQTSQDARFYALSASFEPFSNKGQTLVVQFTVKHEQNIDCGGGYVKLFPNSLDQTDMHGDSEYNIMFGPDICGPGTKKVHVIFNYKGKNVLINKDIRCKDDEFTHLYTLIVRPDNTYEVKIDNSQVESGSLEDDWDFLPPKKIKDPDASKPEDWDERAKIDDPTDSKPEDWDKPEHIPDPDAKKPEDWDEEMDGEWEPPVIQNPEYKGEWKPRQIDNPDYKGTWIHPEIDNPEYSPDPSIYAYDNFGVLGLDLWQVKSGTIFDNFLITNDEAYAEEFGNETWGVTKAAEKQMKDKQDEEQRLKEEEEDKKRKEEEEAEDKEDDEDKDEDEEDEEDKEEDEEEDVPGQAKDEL

Target	thermal stability z-score [1]	thermal stability z-score [2, 3]	thermal stability z-score ([2]; arsenate co-treatment: none)
C11ORF98 (UniProt E9PRG8)	-1.91	-0.688	-0.534
C12ORF10 (UniProt Q9HB07)	0.0961	-0.0259	-1.16
C12ORF29 (UniProt Q8N999)	-1.5	0.423	-0.117
C12ORF43 (UniProt Q96C57)	-1.08	0.941	-0.0235
C12ORF45 (UniProt Q8N5I9)	0.591	0.42	0.511
C14ORF166 (UniProt Q9Y224)	-0.994	0.126	0.251
C15ORF38|ARPIN	0.206	-0.167	0.382
C15ORF40 (UniProt Q8WUR7)	-1.19	0.334	-0.344
C16ORF13 (UniProt Q96S19)	0.536	0.306	0.154
C16ORF58 (UniProt Q96GQ5)	-0.192	-0.446	-0.183
C16ORF62 (UniProt Q7Z3J2)	0.119	0.411	0.213
C17ORF59 (UniProt Q96GS4)	-0.163	0.136	-0.131
C17ORF62 (UniProt Q9BQA9)	1.37	0.898	0.761
C17ORF75 (UniProt Q9HAS0)	-0.0267	0.0162	-0.0686
C17ORF80 (UniProt Q9BSJ5)	-0.529	-1.48	-1.08
C18ORF8 (UniProt Q96DM3)	-0.638	0.827	0.41
C18ORF21 (UniProt Q32NC0)	-2.28	-0.42	-0.189
C18ORF25 (UniProt Q96B23)	0.363	-0.688	-0.189
C19ORF43 (UniProt Q9BQ61)	-0.0224	0.121	0.217
C19ORF52 (UniProt Q9BSF4)	0.873	0.441	0.873
C19ORF53 (UniProt Q9UNZ5)	-0.988	0.3	0.508
C19ORF70|MIC13	0.22	0.265	0.131
C20ORF24 (UniProt Q9BUV8)	-0.477	0.799	0.361
C20ORF27 (UniProt Q9GZN8)	-0.583	0.247	0.189
C21ORF59 (UniProt P57076)	0.112	0.103	0.1
CAB39 (UniProt Q9Y376)	-0.245	0.454	0.641
CABLES1 (UniProt Q8TDN4)	-0.0215	0.124	0.218

Target	thermal stability z-score [1]	thermal stability z-score [2, 3]	thermal stability z-score ([2]; arsenate co-treatment: none)
CACTIN (UniProt Q8WUQ7)	-0.0248	-0.265	-0.163
CACUL1 (UniProt Q86Y37)	-0.563	0.0904	0.129
CACYBP (UniProt Q9HB71)	0.37	0.276	0.0201
CAD (UniProt P27708)	-0.201	-0.284	-1.08
CADM1 (UniProt Q9BY67)	0.376	0.995	0.905
CALCOCO1 (UniProt Q9P1Z2)	0.0728	0.179	0.0847
CALCOCO2 (UniProt Q13137)	0.743	0.172	0.108
CALD1 (UniProt Q05682)	0.103	0.261	0.218
CALM1 (UniProt P0DP23)	1.29	3.06	1.53
CALR (UniProt P27797)	0.147	-4.25	-3.48
CALU (UniProt O43852)	0.255	0.0232	0.235
CAMK1D (UniProt Q8IU85)	0.553	-0.513	-0.221
CAMK2D (UniProt Q13557)	-0.0188	0.111	0.215
CAMK2G (UniProt Q13555)	0.174	-0.504	-0.174
CAMKK1 (UniProt Q8N5S9)	4.72	0.776	1.45
CAMKMT (UniProt Q7Z624)	-0.235	0.0977	-0.0333
CAMLG (UniProt P49069)	0.0417	0.508	0.0877
CAMSAP1 (UniProt Q5T5Y3)	-0.293	0.0305	-0.371
CAMSAP2 (UniProt Q08AD1)	-1.05	-0.52	-0.353
CAND1 (UniProt Q86VP6)	-0.122	0.463	0.225
CANT1 (UniProt Q8WVQ1)	-0.0872	0.0524	0.482
CANX (UniProt P27824)	0.851	-3.78	-3.12
CAP1 (UniProt Q01518)	-0.0608	0.524	0.502
CAP2 (UniProt P40123)	0.329	0.00549	-0.126
CAPG (UniProt P40121)	-0.915	0.598	0.158
CAPN1 (UniProt P07384)	-0.369	-0.0396	-0.213
CAPN2 (UniProt P17655)	0.109	0.345	0.208
